In patent US12479822B2, “AHR agonists” (Eli Lilly and Company, priority 2021, dated 2025):

Target: T1, Human AHR (Homo sapiens, UniProt P35869)
T1 construct: expressed in transfected cells
T1 sequence (P35869 11-848): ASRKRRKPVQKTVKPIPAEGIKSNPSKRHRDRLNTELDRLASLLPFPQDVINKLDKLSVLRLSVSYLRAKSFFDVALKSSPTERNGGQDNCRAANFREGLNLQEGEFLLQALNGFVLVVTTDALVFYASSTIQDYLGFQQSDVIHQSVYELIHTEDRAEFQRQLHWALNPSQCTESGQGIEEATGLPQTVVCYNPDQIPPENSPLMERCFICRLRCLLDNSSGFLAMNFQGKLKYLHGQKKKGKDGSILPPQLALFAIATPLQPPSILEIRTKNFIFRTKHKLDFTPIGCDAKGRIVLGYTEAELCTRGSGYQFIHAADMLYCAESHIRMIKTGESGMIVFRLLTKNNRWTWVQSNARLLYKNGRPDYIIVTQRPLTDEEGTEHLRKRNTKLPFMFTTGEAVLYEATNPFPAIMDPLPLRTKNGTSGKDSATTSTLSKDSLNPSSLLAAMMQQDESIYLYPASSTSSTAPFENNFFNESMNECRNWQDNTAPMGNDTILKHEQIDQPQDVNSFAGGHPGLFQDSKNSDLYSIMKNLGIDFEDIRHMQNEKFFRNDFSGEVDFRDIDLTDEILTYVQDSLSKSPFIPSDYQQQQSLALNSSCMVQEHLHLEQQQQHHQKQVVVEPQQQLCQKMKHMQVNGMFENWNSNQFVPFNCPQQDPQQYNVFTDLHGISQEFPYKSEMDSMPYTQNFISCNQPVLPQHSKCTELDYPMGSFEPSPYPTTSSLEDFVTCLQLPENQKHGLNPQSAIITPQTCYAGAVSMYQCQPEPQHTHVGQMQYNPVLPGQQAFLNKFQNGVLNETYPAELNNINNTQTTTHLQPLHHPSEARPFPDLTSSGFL
Assay: hAHR Nuclear Translocation Assay
Type: cell-based
Conditions: Jump-In T-REx HEK293 cells expressing AhR-EGFP chimera; 45 minutes incubation; ratio of EGFP fluorescent intensity in nuclear over cytosol; 20-point curve
Experimental: Stable cell lines were established using Jump-In™ T-REx™ HEK293 Retargeting Kit (Life Technologies). Human AHR cDNA was cloned into the pJTI R4 CMV-TO EGFP vector. The EGFP was cloned to the C-terminal of AHR to form AhR-EGFP chimera. The pJTI R4 CMV-TO AhR-EGFP vector was transfected using FuGENE® HD into Jump-In™ T-REx™ HEK293 cells. Transfected cells were selected using 2.5 mg/ml G418 for 10 to 14 days, then expanded, harvested, and suspended in freeze media (FBS with 8% DMSO) at 2×10^7 cells/ml, and aliquots were stored in liquid nitrogen. […] On the assay date, compound was serially diluted (1:2) into 384-well nunc plates with DMSO using acoustic dispensing (ECHO). The dose response was a 20-point curve. Compound was resuspended in 40 μl of DMEM plus 0.1% BSA. The culture media was damped and 25 μl of DMEM plus 0.1% BSA was added, then 25 μl of compound in DMEM plus 0.1% BSA was added into cell plates. Cells were incubated with compounds at 37° C. and 5% CO2 for 45 minutes. The final DMSO concentration was 0.2%. The media was damped after 45 minutes of incubation. The cells were fixed with 40 μl of cold methanol (−20° C.) for 20 minutes. The methanol was damped and 50 μl of DPBS containing 1 μg/ml Hochst was added into the cell plates. The intensity of EGFP was quantitated by using OPERA PHENIX® or Operetta™ high content image system (Perkin Elmer) with 20× Water Objective and five field per well. The ratio of EGFP fluorescent intensity in nuclear over cytosol was analyzed using a 4-parameter nonlinear logistic equation to determine the potency of AHR agonists.

Compared with `O=C(Nc1ncccn1)c1cc2cccc3c2n(c1=O)CC3` [Example 38, 11-Oxo-N-pyrimidin-2-yl-1-azatricyclo[6.3.1.04,12]dodeca-4(12),5,7,9-tetraene-10-carboxamide], `O=C(Nc1ccccn1)c1cc2cccc3c2n(c1=O)CC3` [Example 42, 11-Oxo-N-(2-pyridyl)-1-azatricyclo[6.3.1.04,12]dodeca-4(12),5,7,9-tetraene-10-carboxamide] is 1.6-fold lower in EC50: 6.34 nM for the first, 3.96 nM for the second. The second is the more potent here.

Compared with `Cn1c(=O)c(C(=O)Nc2ncccn2)cc2ccccc21` [Example 39, 1-Methyl-2-oxo-N-pyrimidin-2-yl-quinoline-3-carboxamide], `Cn1c(=O)c(C(=O)Nc2ccccc2)cc2ccc(Br)cc21` [Example 40, 7-Bromo-1-methyl-2-oxo-N-phenyl-quinoline-3-carboxamide] is 4.2-fold lower in EC50: 3.52 nM for the first, 0.831 nM for the second.

Going from `Cc1ccc(NC(=O)c2cc3cccc4c3n(c2=O)CC4)nc1` [Example 41, N-(5-Methyl-2-pyridyl)-11-oxo-1-azatricyclo[6.3.1.04, 12]dodeca-4(12),5,7,9-tetraene-10-carboxamide] to `Cn1c(=O)c(C(=O)Nc2ccc(F)cn2)cc2cc(NCCO)ccc21` [Example 66, N-(5-Fluoro-2-pyridyl)-6-(2-hydroxyethylamino)-1-methyl-2-oxo-quinoline-3-carboxamide], the EC50 rises from 6.24 nM to 53.9 nM (8.6-fold).

First: COc1ccc(NC(=O)c2cc3ccc(C)cc3n(C)c2=O)cc1 [Example 44, N-(4-Methoxyphenyl)-1,7-dimethyl-2-oxo-quinoline-3-carboxamide]
Second: CNc1ccc2cc(C(=O)Nc3ccc(OC)cc3)c(=O)n(C)c2c1 [Example 46, N-(4-Methoxyphenyl)-1-methyl-7-(methylamino)-2-oxo-quinoline-3-carboxamide]
The EC50 of the first is 3.7-fold lower: 0.595 nM for the first, 2.21 nM for the second.

First: COc1ccc(NC(=O)c2cc3ccc(C4CC4)cc3n(C)c2=O)cc1 [Example 45, 7-Cyclopropyl-N-(4-methoxyphenyl)-1-methyl-2-oxo-quinoline-3-carboxamide]
Second: COc1ccc(NC(=O)c2cc3ccc(N(C)C)cc3n(C)c2=O)cc1 [Example 47, 7-(Dimethylamino)-N-(4-methoxyphenyl)-1-methyl-2-oxo-quinoline-3-carboxamide]
The EC50 of the first is 8.4-fold lower: 2.14 nM for the first, 18 nM for the second. The first is the more potent here.

Compared with `CN(C)CCNc1cccc2c1cc(C(=O)Nc1ccccc1)c(=O)n2C` [Example 48, 5-[2-(Dimethylamino)ethylamino]-1-methyl-2-oxo-N-phenyl-quinoline-3-carboxamide], `Cn1c(=O)c(C(=O)Nc2ccccc2)cc2c(NCCO)cccc21` [Example 63, 5-(2-Hydroxyethylamino)-1-methyl-2-oxo-N-phenyl-quinoline-3-carboxamide] is 11-fold lower in EC50: 21.3 nM for the first, 1.91 nM for the second.

Compared with `CN(C)CCNc1ccc2c(c1)cc(C(=O)Nc1ccccc1)c(=O)n2C` [Example 49, 6-[2-(Dimethylamino)ethylamino]-1-methyl-2-oxo-N-phenyl-quinoline-3-carboxamide], `Cn1c(=O)c(C(=O)Nc2ccccc2)cc2cc(NCCO)ccc21` [Example 62, 6-(2-Hydroxyethylamino)-1-methyl-2-oxo-N-phenyl-quinoline-3-carboxamide] is 1.5-fold lower in EC50: 9 nM for the first, 6 nM for the second.

First: CN(C)CCNc1cccc2cc(C(=O)Nc3ccccc3)c(=O)n(C)c12 [Example 50, 8-[2-(Dimethylamino)ethylamino]-1-methyl-2-oxo-N-phenyl-quinoline-3-carboxamide]
Second: CN(C)CCNc1cccc2c1cc(C(=O)Nc1ccccn1)c(=O)n2C [Example 53, 5-[2-(Dimethylamino)ethylamino]-1-methyl-2-oxo-N-(2-pyridyl)quinoline-3-carboxamide]
The EC50 of the first is 1.7-fold higher: 26.8 nM for the first, 16.2 nM for the second.

First: CN(C)CCNc1cccc2c1cc(C(=O)Nc1ccc(F)cn1)c(=O)n2C [Example 51, 5-[2-(Dimethylamino)ethylamino]-N-(5-fluoro-2-pyridyl)-1-methyl-2-oxo-quinoline-3-carboxamide]
Second: Cn1c(=O)c(C(=O)Nc2ccc(F)cn2)cc2c(NCCO)cccc21 [Example 67, N-(5-Fluoro-2-pyridyl)-5-(2-hydroxyethylamino)-1-methyl-2-oxo-quinoline-3-carboxamide]
The EC50 of the first is 8.5-fold higher: 16.4 nM for the first, 1.92 nM for the second.

Compared with `CN(C)CCNc1ccc2c(c1)cc(C(=O)Nc1ccc(F)cn1)c(=O)n2C` [Example 52, 6-[2-(Dimethylamino)ethylamino]-N-(5-fluoro-2-pyridyl)-1-methyl-2-oxo-quinoline-3-carboxamide], `CN(C)CCNc1ccc2c(c1)cc(C(=O)Nc1ccccn1)c(=O)n2C` [Example 55, 6-[2-(Dimethylamino)ethylamino]-1-methyl-2-oxo-N-(2-pyridyl)quinoline-3-carboxamide] is 2-fold higher in EC50: 20.3 nM for the first, 40.6 nM for the second. The first is the more potent here.

Compared with `CN(C)CCNc1cccc2c1cc(C(=O)Nc1ncc(C(F)(F)F)cn1)c(=O)n2C` [Example 54, 5-[2-(Dimethylamino)ethylamino]-1-methyl-2-oxo-N-[5-(trifluoromethyl)pyrimidin-2-yl]quinoline-3-carboxamide], `Cn1c(=O)c(C(=O)Nc2ncc(C(F)(F)F)cn2)cc2c(NCCO)cccc21` [Example 69, 5-(2-Hydroxyethylamino)-1-methyl-2-oxo-N-[5-(trifluoromethyl)pyrimidin-2-yl]quinoline-3-carboxamide] is 2.7-fold lower in EC50: 18.3 nM for the first, 6.66 nM for the second.

First: COc1ccc(NC(=O)c2cc3ccc(NCCN(C)C)cc3n(C)c2=O)cc1 [Example 56, 7-[2-(Dimethylamino)ethylamino]-N-(4-methoxyphenyl)-1-methyl-2-oxo-quinoline-3-carboxamide]
Second: Cn1c(=O)c(C(=O)Nc2ccccc2)cc2ccc(NCCO)cc21 [Example 70, 7-(2-Hydroxyethylamino)-1-methyl-2-oxo-N-phenyl-quinoline-3-carboxamide]
The EC50 of the first is 5.2-fold higher: 79.2 nM for the first, 15.1 nM for the second. The second is the more potent here.

`CN(C)CCNc1cccc2c1cc(C(=O)Nc1ncc(F)cn1)c(=O)n2C` [Example 57, 5-[2-(Dimethylamino)ethylamino]-N-(5-fluoropyrimidin-2-yl)-1-methyl-2-oxo-quinoline-3-carboxamide] and `Cn1c(=O)c(C(=O)Nc2ncc(F)cn2)cc2c(NCCO)cccc21` [Example 68, N-(5-Fluoropyrimidin-2-yl)-5-(2-hydroxyethylamino)-1-methyl-2-oxo-quinoline-3-carboxamide] are within 1.5-fold of each other in EC50: 62.8 nM for the first, 81.2 nM for the second.

Going from `Cn1c(=O)c(C(=O)Nc2ccccc2)cc2cc(OCCO)ccc21` [Example 58, 6-(2-Hydroxyethoxy)-1-methyl-2-oxo-N-phenyl-quinoline-3-carboxamide] to `Cn1c(=O)c(C(=O)Nc2ccccc2)cc2ccc(OCCO)cc21` [Example 61, 7-(2-Hydroxyethoxy)-1-methyl-2-oxo-N-phenyl-quinoline-3-carboxamide], the EC50 rises from 7.45 nM to 16.1 nM (2.2-fold). The first is the more potent here.

Going from `Cn1c(=O)c(C(=O)Nc2ccccn2)cc2cc(OCCO)ccc21` [Example 59, 6-(2-Hydroxyethoxy)-1-methyl-2-oxo-N-(2-pyridyl)quinoline-3-carboxamide] to `Cn1c(=O)c(C(=O)Nc2ccccn2)cc2c(NCCO)cccc21` [Example 65, 5-(2-Hydroxyethylamino)-1-methyl-2-oxo-N-(2-pyridyl)quinoline-3-carboxamide], the EC50 falls from 19.2 nM to 6.69 nM (2.9-fold). The second is the more potent here.

Compared with `Cn1c(=O)c(C(=O)Nc2ccccc2)cc2c(OCCO)cccc21` [Example 60, 5-(2-Hydroxyethoxy)-1-methyl-2-oxo-N-phenyl-quinoline-3-carboxamide], `Cn1c(=O)c(C(=O)Nc2ncc(F)s2)cc2c(NCCO)cccc21` [Example 64, N-(5-Fluorothiazol-2-yl)-5-(2-hydroxyethylamino)-1-methyl-2-oxo-quinoline-3-carboxamide] is 38-fold higher in EC50: 1.4 nM for the first, 52.9 nM for the second.
